In publication PMC7587337, “Kaempferol Facilitated Extinction Learning in Contextual Fear Conditioned Rats via Inhibition of Fatty-Acid Amide Hydrolase” (Molecules, 2020):

Key:
[1] = target: T1, fatty-acid amide hydrolase (FAAH) (Homo sapiens, UniProt O00519); experiment: FAAH inhibitor screening assay kit (Cayman […]), percent inhibition at […]; type: biochemical
T1 sequence (O00519 1-579): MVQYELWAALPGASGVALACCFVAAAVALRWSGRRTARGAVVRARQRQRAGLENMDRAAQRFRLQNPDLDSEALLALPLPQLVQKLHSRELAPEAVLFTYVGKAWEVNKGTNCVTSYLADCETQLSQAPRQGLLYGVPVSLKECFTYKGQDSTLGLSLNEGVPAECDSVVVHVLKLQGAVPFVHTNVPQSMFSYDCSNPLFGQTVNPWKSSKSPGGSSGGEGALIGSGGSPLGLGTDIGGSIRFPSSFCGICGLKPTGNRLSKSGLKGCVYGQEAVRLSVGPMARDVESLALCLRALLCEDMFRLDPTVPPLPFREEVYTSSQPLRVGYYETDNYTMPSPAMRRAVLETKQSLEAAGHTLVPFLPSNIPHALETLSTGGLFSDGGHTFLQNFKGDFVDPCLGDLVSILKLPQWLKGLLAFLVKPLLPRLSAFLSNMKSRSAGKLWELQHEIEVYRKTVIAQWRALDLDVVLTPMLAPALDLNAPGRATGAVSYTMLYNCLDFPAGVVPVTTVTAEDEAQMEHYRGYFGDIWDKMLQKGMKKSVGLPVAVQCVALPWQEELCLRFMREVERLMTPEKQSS

[2] = target: T1, fatty-acid amide hydrolase (FAAH); experiment: FAAH inhibitor screening assay kit (Cayman […]), dose-response […]; type: biochemical

| Compound | inhibition at 10 µM [1] [%] | IC50 [2] [nM] |
| --- | --- | --- |
| O=C(Oc1ccc([N+](=O)[O-])cc1)N1CCN(Cc2cccc(Oc3ccccc3)c2)CC1 [JZL195] | 88 ± 1.26 |  |
| O=c1c(O)c(-c2ccc(O)cc2)oc2cc(O)cc(O)c12 [kaempferol] |  | 1060 |
